From patent US11866430B2, “Naphthyridinone compounds useful as T cell activators” (priority 2018, dated 2024) come the findings set out here.

Each structure is given as a SMILES string.

The subject of this assay is naïve human CD8 T cells. The assay is described as follows: Human CD8 T cells pERK Assay. The assay is classed as cell-based. The settings on record: T-cell, read-out: HuCD8 pERK IC50. The protocol: Frozen naïve human CD8 T cells were thawed in AIM-V media, incubated for 2 h in 37° C., and counted. The CD8 positive T cells were added to 384-well tissue culture plate at 20,000 cells per well in AIM-V media. One compound was added to each well, then bead bound anti-human CD3 and anti-CD28 mAb were added at final concentration of 0.3 μg/mL. The cells were incubated at 37° C. for 10 minutes. The reaction was stopped by adding lysis buffer from the AlphaLISA Surefire kit. (Perkin Elmer, cat #ALSU-PERK-A). Lysate (5 μL per well) was transferred into a new 384-well white assay plate for pERK activation measurement.

In the case of `COc1cc(F)ccc1C(c1ccc(F)cc1)N1CCN(c2c([N+](=O)[O-])c(=O)n(C)c3ccc(C#N)nc23)CC1` (single isomer, unassigned) [Example 124, 8-(4-((4-fluoro-2-methoxyphenyl)(4-fluorophenyl)methyl)piperazin-1-yl)-5-methyl-7-nitro-6-oxo-5,6-dihydro-1,5-naphthyridine-2-carbonitrile], the IC50 came to 0.36 µM. As for `C#CCn1c(=O)c([N+](=O)[O-])c(N2CCN(C(c3ccc(F)cc3)C3CC3)CC2)c2nc(C#N)ccc21` (single isomer, unassigned) [Example 143, 8-(4-(cyclopropyl(4-fluorophenyl)methyl)piperazin-1-yl)-7-nitro-6-oxo-5-(prop-2-yn-1-yl)-5,6-dihydro-1,5-naphthyridine-2-carbonitrile], the figure is 0.06 µM.

A word on the IC50: it is the concentration that inhibits the measured activity by half.
